In general, IC50 refers to the point on the concentration scale where inhibition reaches its midpoint.

This passage reports IC50 results from US10793580B2, “Substituted pyrazoloazepin-8-ones and their use as phosphodiesterase inhibitors” (LEO Pharma A/S, priority 2016, dated 2020).

A value given as a limit tells only on which side of the number the result lay.

Sequence of human PDE4D catalytic domain (Q08499 380-740): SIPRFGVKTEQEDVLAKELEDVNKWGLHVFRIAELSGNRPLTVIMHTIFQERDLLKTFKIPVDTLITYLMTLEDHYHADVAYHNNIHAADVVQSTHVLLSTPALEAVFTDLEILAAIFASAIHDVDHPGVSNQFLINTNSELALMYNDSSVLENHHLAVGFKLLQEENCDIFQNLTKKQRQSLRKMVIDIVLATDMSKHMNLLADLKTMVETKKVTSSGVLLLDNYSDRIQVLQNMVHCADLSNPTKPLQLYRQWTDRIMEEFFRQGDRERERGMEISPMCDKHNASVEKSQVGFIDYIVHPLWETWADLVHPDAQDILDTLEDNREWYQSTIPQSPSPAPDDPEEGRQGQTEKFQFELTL

The assay concerns the target human PDE4D catalytic domain (Homo sapiens (Human), UniProt Q08499). Nature of the assay: PDE4 Assay (TR-FRET, FAM-cAMP cleavage). Type of assay: biochemical. The following applies: human PDE4D catalytic domain (UniProt Q08499 [S380-L740]); 50% inhibition of substrate cleavage; read-out: PDE4 IC50 range. Here is the method:
The human PDE4D catalytic domain (UniProt no. Q08499 [S380-L740]) was incubated with a mixture of non-labelled cAMP (cyclic adenosine monophosphate) and fluorescein amidite (FAM) conjugated cAMP and titrated test or reference Compound. Following brief incubation the enzymatic reaction was stopped by addition of binding buffer containing nanoparticles with immobilized trivalent metal ions capable of binding 1) AMP phospho groups and 2) terbium (Tb) donor fluorophores. Subsequent excitation of the Tb donor triggers time-resolved FRET to adjacent FAM acceptor molecules resulting in light emission. In the presence of a PDE4 inhibitor, AMP generation was reduced resulting in a lower fluorescence signal. The cAMP phosphodiester is not bound by the detection system.
The results were calculated as the molar concentrations resulting in 50% inhibition of the substrate cleavage compared to controls samples, and are expressed as a range of IC50 (nM).
Background: Time-resolved FRET reads energy transfer from a long-lived donor to a nearby acceptor.
Turning to `CCn1nc(CCCOC(=O)c2ccc(S(=O)(=O)NC)cc2)c2c1C(=O)NCC1(CCOCC1)C2` [Example 1, 3-(1-Ethyl-8-oxo-spiro[6,7-dihydro-4H-pyrazolo[3,4-c]azepine-5,4′-tetrahydropyran]-3-yl)propyl 4-(methylsulfamoyl)benzoate], the concentration for half-maximal inhibition (IC50) is less than 100 nM.

`CCn1nc(CCCOC(=O)c2ccc(S(=O)(=O)N(C)C)cc2)c2c1C(=O)NCC1(CCOCC1)C2` [Example 2, 3-(1-Ethyl-8-oxo-spiro[6,7-dihydro-4H-pyrazolo[3,4-c]azepine-5,4′-tetrahydropyran]-3-yl)propyl 4-(dimethylsulfamoyl)benzoate]: the IC50 is less than 100 nM.

For the compound `CCn1nc(CCCOC(=O)c2ccc(S(C)(=O)=O)cc2)c2c1C(=O)NCC1(CCOCC1)C2` [Example 3, 3-(1-Ethyl-8-oxo-spiro[6,7-dihydro-4H-pyrazolo[3,4-c]azepine-5,4′-tetrahydropyran]-3-yl)propyl 4-methylsulfonylbenzoate], the IC50 is less than 100 nM.

In the case of `CCn1nc(CCCOC(=O)C(C)C)c2c1C(=O)NCC1(CCOCC1)C2` [Example 4, 3-(1-ethyl-8-oxo-spiro[6,7-dihydro-4H-pyrazolo[3,4-c]azepine-5,4′-tetrahydropyran]-3-yl)propyl 2-methylpropanoate], the IC50 was less than 100 nM.

On to `CCn1nc(CCCOC(=O)C2CCCC2)c2c1C(=O)NCC1(CCOCC1)C2` [Example 5, 3-(1-ethyl-8-oxo-spiro[6,7-dihydro-4H-pyrazolo[3,4-c]azepine-5,4′-tetrahydropyran]-3-yl)propyl cyclopentanecarboxylate], for which the IC50 was less than 100 nM.

With `CCC(CC)C(=O)OCCCc1nn(CC)c2c1CC1(CCOCC1)CNC2=O` [Example 6, 3-(1-ethyl-8-oxo-spiro[6,7-dihydro-4H-pyrazolo[3,4-c]azepine-5,4′-tetrahydropyran]-3-yl)propyl 2-ethylbutanoate], the IC50 was less than 100 nM.

As to `CCn1nc(CCCOC(=O)c2ccccc2)c2c1C(=O)NCC1(CCOCC1)C2` [Example 7, 3-(1-ethyl-8-oxo-spiro[6,7-dihydro-4H-pyrazolo[3,4-c]azepine-5,4′-tetrahydropyran]-3-yl)propyl benzoate], the IC50 was less than 100 nM.

`CCn1nc(CCCOC(=O)c2ccc(C)cc2)c2c1C(=O)NCC1(CCOCC1)C2` [Example 8, 3-(1-ethyl-8-oxo-spiro[6,7-dihydro-4H-pyrazolo[3,4-c]azepine-5,4′-tetrahydropyran]-3-yl)propyl 4-methylbenzoate]: the 50% inhibitory concentration (IC50) is less than 100 nM.

On to `CCn1nc(CCCOC(=O)c2cccc(F)c2)c2c1C(=O)NCC1(CCOCC1)C2` [Example 9, 3-(1-ethyl-8-oxo-spiro[6,7-dihydro-4H-pyrazolo[3,4-c]azepine-5,4′-tetrahydropyran]-3-yl)propyl 3-fluorobenzoate], for which the IC50 is less than 100 nM.

Regarding `CCn1nc(CCCOC(=O)c2ccc(F)cc2)c2c1C(=O)NCC1(CCOCC1)C2` [Example 10, 3-(1-ethyl-8-oxo-spiro[6,7-dihydro-4H-pyrazolo[3,4-c]azepine-5,4′-tetrahydropyran]-3-yl)propyl 4-fluorobenzoate], the IC50 was less than 100 nM.

Consider `CCn1nc(CCCOC(=O)c2cccc(C#N)c2)c2c1C(=O)NCC1(CCOCC1)C2` [Example 11, 3-(1-ethyl-8-oxo-spiro[6,7-dihydro-4H-pyrazolo[3,4-c]azepine-5,4′-tetrahydropyran]-3-yl) propyl 3-cyanobenzoate], for which the half-inhibitory concentration (IC50) is less than 100 nM.

Take `CCn1nc(CCCOC(=O)c2ccc(C#N)cc2)c2c1C(=O)NCC1(CCOCC1)C2` [Example 12, 3-(1-ethyl-8-oxo-spiro[6,7-dihydro-4H-pyrazolo[3,4-c]azepine-5,4′-tetrahydropyran]-3-yl) propyl 4-cyanobenzoate]: the IC50 is less than 100 nM.

Consider `CCn1nc(CCCOC(=O)c2ccc(C)c(C)c2)c2c1C(=O)NCC1(CCOCC1)C2` [Example 13, 3-(1-ethyl-8-oxo-spiro[6,7-dihydro-4H-pyrazolo[3,4-c]azepine-5,4′-tetrahydropyran]-3-yl) propyl 3,4-dimethylbenzoate], for which the IC50 is less than 100 nM.

Take `CCn1nc(CCCOC(=O)c2ccc(C)cc2C)c2c1C(=O)NCC1(CCOCC1)C2` [Example 14, 3-(1-ethyl-8-oxo-spiro[6,7-dihydro-4H-pyrazolo[3,4-c]azepine-5,4′-tetrahydropyran]-3-yl)propyl 2,4-dimethylbenzoate]: the IC50 was less than 100 nM.

Take `CCc1ccc(C(=O)OCCCc2nn(CC)c3c2CC2(CCOCC2)CNC3=O)cc1` [Example 15, 3-(1-ethyl-8-oxo-spiro[6,7-dihydro-4H-pyrazolo[3,4-c]azepine-5,4′-tetrahydropyran]-3-yl)propyl 4-ethylbenzoate]: the IC50 was less than 100 nM.

For `CCn1nc(CCCOC(=O)c2ccc(OC)cc2)c2c1C(=O)NCC1(CCOCC1)C2` [Example 16, 3-(1-ethyl-8-oxo-spiro[6,7-dihydro-4H-pyrazolo[3,4-c]azepine-5,4′-tetrahydropyran]-3-yl)propyl 4-methoxybenzoate], the IC50 was less than 100 nM.

For `CCn1nc(CCCOC(=O)c2cccc(OC)c2)c2c1C(=O)NCC1(CCOCC1)C2` [Example 17, 3-(1-ethyl-8-oxo-spiro[6,7-dihydro-4H-pyrazolo[3,4-c]azepine-5,4′-tetrahydropyran]-3-yl)propyl 3-methoxybenzoate], the IC50 is less than 100 nM.

With `CCn1nc(CCCOC(=O)c2ccc(C)cc2F)c2c1C(=O)NCC1(CCOCC1)C2` [Example 18, 3-(1-ethyl-8-oxo-spiro[6,7-dihydro-4H-pyrazolo[3,4-c]azepine-5,4′-tetrahydropyran]-3-yl)propyl 2-fluoro-4-methyl-benzoate], the IC50 is less than 100 nM.

In the case of `CCn1nc(CCCOC(=O)c2ccc(F)cc2C)c2c1C(=O)NCC1(CCOCC1)C2` [Example 19, 3-(1-ethyl-8-oxo-spiro[6,7-dihydro-4H-pyrazolo[3,4-c]azepine-5,4′-tetrahydropyran]-3-yl)propyl 4-fluoro-2-methyl-benzoate], the IC50 is less than 100 nM.

As to `CCn1nc(CCCOC(=O)c2cc(F)ccc2C)c2c1C(=O)NCC1(CCOCC1)C2` [Example 20, 3-(1-ethyl-8-oxo-spiro[6,7-dihydro-4H-pyrazolo[3,4-c]azepine-5,4′-tetrahydropyran]-3-yl)propyl 5-fluoro-2-methyl-benzoate], the IC50 is less than 100 nM.

As to `CCn1nc(CCCOC(=O)c2cccc(F)c2C)c2c1C(=O)NCC1(CCOCC1)C2` [Example 21, 3-(1-ethyl-8-oxo-spiro[6,7-dihydro-4H-pyrazolo[3,4-c]azepine-5,4′-tetrahydropyran]-3-yl)propyl 3-fluoro-2-methyl-benzoate], the IC50 was less than 100 nM.

Turning to `CCn1nc(CCCOC(=O)c2ccc(Cl)cc2)c2c1C(=O)NCC1(CCOCC1)C2` [Example 22, 3-(1-ethyl-8-oxo-spiro[6,7-dihydro-4H-pyrazolo[3,4-c]azepine-5,4′-tetrahydropyran]-3-yl)propyl 4-chlorobenzoate], the IC50 was less than 100 nM.

As to `CCn1nc(CCCOC(=O)c2ccc(F)c(F)c2)c2c1C(=O)NCC1(CCOCC1)C2` [Example 23, 3-(1-ethyl-8-oxo-spiro[6,7-dihydro-4H-pyrazolo[3,4-c]azepine-5,4′-tetrahydropyran]-3-yl)propyl 3,4-difluorobenzoate], the IC50 is less than 100 nM.

On to `CCn1nc(CCCOC(=O)c2cccc(F)c2F)c2c1C(=O)NCC1(CCOCC1)C2` [Example 24, 3-(1-ethyl-8-oxo-spiro[6,7-dihydro-4H-pyrazolo[3,4-c]azepine-5,4′-tetrahydropyran]-3-yl)propyl 2,3-difluorobenzoate], for which the IC50 is less than 100 nM.

Turning to `CCn1nc(CCCOC(=O)c2cc(F)ccc2F)c2c1C(=O)NCC1(CCOCC1)C2` [Example 25, 3-(1-ethyl-8-oxo-spiro[6,7-dihydro-4H-pyrazolo[3,4-c]azepine-5,4′-tetrahydropyran]-3-yl)propyl 2,5-difluorobenzoate], the IC50 was less than 100 nM.

With `CCn1nc(CCCOC(=O)c2c(F)cccc2F)c2c1C(=O)NCC1(CCOCC1)C2` [Example 26, 3-(1-ethyl-8-oxo-spiro[6,7-dihydro-4H-pyrazolo[3,4-c]azepine-5,4′-tetrahydropyran]-3-yl)propyl 2,6-difluorobenzoate], the IC50 is less than 100 nM.

As for `CCn1nc(CCCOC(=O)c2ccc(C(C)=O)cc2)c2c1C(=O)NCC1(CCOCC1)C2` [Example 27, 3-(1-ethyl-8-oxo-spiro[6,7-dihydro-4H-pyrazolo[3,4-c]azepine-5,4′-tetrahydropyran]-3-yl)propyl 4-acetylbenzoate], the IC50 was less than 100 nM.

Turning to `CCn1nc(CCCOC(=O)c2cccc(C(C)=O)c2)c2c1C(=O)NCC1(CCOCC1)C2` [Example 28, 3-(1-ethyl-8-oxo-spiro[6,7-dihydro-4H-pyrazolo[3,4-c]azepine-5,4′-tetrahydropyran]-3-yl)propyl 3-acetylbenzoate], the IC50 is less than 100 nM.

Regarding `CCn1nc(CCCOC(=O)c2cc(F)cc(C#N)c2)c2c1C(=O)NCC1(CCOCC1)C2` [Example 29, 3-(1-ethyl-8-oxo-spiro[6,7-dihydro-4H-pyrazolo[3,4-c]azepine-5,4′-tetrahydropyran]-3-yl)propyl 3-cyano-5-fluoro-benzoate], the IC50 is less than 100 nM.

With `CCn1nc(CCCOC(=O)c2ccc(F)c(C#N)c2)c2c1C(=O)NCC1(CCOCC1)C2` [Example 30, 3-(1-ethyl-8-oxo-spiro[6,7-dihydro-4H-pyrazolo[3,4-c]azepine-5,4′-tetrahydropyran]-3-yl)propyl 3-cyano-4-fluoro-benzoate], the IC50 is less than 100 nM.
